How the values were obtained:
Test in all cases: Radiometric protein kinase assay (33PanQinase), Assay Condition A (thiol containing)
Format in all cases: biochemical
CDK2/CycA2 = CDK2/CycA2 (Homo sapiens (Human), UniProt P24941); settings: thiol containing (1.2 mM DTT), ATP 0.3 μM
Method: (§1) The IC50 profile of test compounds was determined using three protein kinases.
(§2) The compounds were provided as pre-weighed powders in vials. The compounds were dissolved to 1×10^−02M by adding DMSO. 100 μl of each of the resulting stock solutions were transferred into column 2 of four 96 well “master plates”.
(§3) Prior to testing, the 1×10^−02M stock solutions in column 2 of the master plates were subjected to a serial, semi-logarithmic dilution using 100% DMSO as a solvent. […] Column 1 and 7 were filled with 100% DMSO as controls. Subsequently, 2×10 μl from each well of the serial diluted copy plates were aliquoted with a 96 channel pipettor into two identical sets of “compound dilution plates”.
(§4) In the process, 90 μl H2O were added to each well of a set of compound dilution plates. To minimize potential precipitation, the H2O was added to each plate only a few minutes before the transfer of the compound solutions into the assay plates. Each plate was shaken thoroughly, resulting in a “compound dilution plate/10% DMSO”.
(§5) For the assays, 5 μl solution from each well of the compound dilution plates/10% DMSO were transferred into the assay plates. The final volume of the assay was 50 μl. All compounds were tested at 10 final assay concentrations in the range from 1×10^−04M to 3×10^−09M, in singlicate. The final DMSO concentration in the reaction cocktails was 1% in all cases.
(§6) All protein kinases were expressed in Sf9 insect cells or in E. coli as recombinant GST-fusion proteins or His-tagged proteins, either as full-length or enzymatically active fragments. All kinases were produced from human cDNAs and purified by either GSH-affinity chromatography or immobilized metal. Affinity tags were removed from a number of kinases during purification. The purity of the protein kinases was examined by SDS-PAGE/Coomassie staining, the identity was checked by mass spectroscopy.
(§7) A radiometric protein kinase assay (^33PanQinase® Activity Assay) was used for measuring the kinase activity of the three protein kinases. All kinase assays were performed in 96-well FlashPlates™ from PerkinElmer (Boston, Mass., USA) in a 50 μl reaction volume. The reaction cocktail was pipetted in four steps in the following order: • 20 μl of assay buffer (standard buffer) • 5 μl of ATP solution (in H2O) • 5 μl of test compound (in 10% DMSO) • 20 μl enzyme/substrate mix
(§8) The reaction cocktails were incubated at 30° C. for 60 minutes. The reaction was stopped with 50 μl of 2% (v/v) H3PO4, plates were aspirated and washed two times with 200 μl 0.9% (w/v) NaCl. Incorporation of ^33Pi was determined with a microplate scintillation counter (Microbeta, Wallac). All assays were performed with a BeckmanCoulter/SAGIAN™ Core System.
(§9) The median value of the counts in column 1 (n=8) of each assay plate was defined as “low control”. This value reflects unspecific binding of radioactivity to the plate in the absence of a protein kinase but in the presence of the substrate. The median value of the counts in column 7 of each assay plate (n=8) was taken as the “high control”, i.e. full activity in the absence of any inhibitor. The difference between high and low control was taken as 100% activity.
(§10) As part of the data evaluation the low control value from a particular plate was subtracted from the high control value as well as from all 80 “compound values” of the corresponding plate. The residual activity (in %) for each well of a particular plate was calculated by using the following formula: Res. Activity (%)=100×[(cpm of compound−low control)/(high control−low control)]
(§11) The residual activities for each concentration and the compound IC50 values were calculated using Quattro Workflow V3.1.1 (Quattro Research GmbH, Munich, Germany). […] The fitting method used was a least-squares fit.

CDK12 wt/CycK = CDK12 wt/CycK (Homo sapiens (Human), UniProt Q9NYV4); settings: thiol containing (1.2 mM DTT), ATP 0.3 μM
Sequence of CDK12 wt/CycK (Q9NYV4 whole entry): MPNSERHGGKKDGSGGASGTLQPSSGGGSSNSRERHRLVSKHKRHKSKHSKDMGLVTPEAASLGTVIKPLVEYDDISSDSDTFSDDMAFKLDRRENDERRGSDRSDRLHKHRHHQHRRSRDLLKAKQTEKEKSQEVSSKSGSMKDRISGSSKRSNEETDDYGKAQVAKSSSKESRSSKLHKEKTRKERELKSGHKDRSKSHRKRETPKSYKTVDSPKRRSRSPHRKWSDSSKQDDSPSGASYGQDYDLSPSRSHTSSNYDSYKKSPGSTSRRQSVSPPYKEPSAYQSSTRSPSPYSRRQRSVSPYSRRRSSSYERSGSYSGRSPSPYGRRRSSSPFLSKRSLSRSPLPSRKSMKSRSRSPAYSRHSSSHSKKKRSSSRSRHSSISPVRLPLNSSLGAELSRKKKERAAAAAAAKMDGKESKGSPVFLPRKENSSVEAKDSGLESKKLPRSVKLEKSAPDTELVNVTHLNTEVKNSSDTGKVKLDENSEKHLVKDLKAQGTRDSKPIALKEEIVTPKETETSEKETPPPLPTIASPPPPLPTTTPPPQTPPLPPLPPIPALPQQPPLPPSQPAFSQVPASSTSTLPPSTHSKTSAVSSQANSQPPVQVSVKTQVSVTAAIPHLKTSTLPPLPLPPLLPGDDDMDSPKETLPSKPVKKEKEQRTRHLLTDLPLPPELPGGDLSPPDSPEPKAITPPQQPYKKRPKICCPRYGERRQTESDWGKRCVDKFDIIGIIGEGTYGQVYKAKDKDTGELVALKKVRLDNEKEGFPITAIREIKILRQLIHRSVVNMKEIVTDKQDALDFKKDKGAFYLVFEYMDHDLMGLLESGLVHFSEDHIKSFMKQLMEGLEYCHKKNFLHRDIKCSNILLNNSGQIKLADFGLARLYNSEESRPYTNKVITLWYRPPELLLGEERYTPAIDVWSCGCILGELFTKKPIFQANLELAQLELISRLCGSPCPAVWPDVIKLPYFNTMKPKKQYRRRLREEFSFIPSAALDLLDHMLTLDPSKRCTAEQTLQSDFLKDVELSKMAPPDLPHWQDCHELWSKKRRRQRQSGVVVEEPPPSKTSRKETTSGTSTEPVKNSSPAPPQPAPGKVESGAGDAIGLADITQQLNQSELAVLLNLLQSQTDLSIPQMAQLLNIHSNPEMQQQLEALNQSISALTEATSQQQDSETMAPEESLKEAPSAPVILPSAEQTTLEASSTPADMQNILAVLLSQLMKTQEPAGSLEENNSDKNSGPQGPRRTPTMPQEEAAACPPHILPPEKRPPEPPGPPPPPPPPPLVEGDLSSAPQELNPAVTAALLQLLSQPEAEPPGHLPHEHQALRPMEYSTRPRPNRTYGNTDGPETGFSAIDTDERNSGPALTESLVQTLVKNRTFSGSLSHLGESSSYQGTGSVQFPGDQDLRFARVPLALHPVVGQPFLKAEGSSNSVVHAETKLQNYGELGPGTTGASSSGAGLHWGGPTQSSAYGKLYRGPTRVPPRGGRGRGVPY
Sequence of CDK12 wt/CycK (O75909 whole entry partner): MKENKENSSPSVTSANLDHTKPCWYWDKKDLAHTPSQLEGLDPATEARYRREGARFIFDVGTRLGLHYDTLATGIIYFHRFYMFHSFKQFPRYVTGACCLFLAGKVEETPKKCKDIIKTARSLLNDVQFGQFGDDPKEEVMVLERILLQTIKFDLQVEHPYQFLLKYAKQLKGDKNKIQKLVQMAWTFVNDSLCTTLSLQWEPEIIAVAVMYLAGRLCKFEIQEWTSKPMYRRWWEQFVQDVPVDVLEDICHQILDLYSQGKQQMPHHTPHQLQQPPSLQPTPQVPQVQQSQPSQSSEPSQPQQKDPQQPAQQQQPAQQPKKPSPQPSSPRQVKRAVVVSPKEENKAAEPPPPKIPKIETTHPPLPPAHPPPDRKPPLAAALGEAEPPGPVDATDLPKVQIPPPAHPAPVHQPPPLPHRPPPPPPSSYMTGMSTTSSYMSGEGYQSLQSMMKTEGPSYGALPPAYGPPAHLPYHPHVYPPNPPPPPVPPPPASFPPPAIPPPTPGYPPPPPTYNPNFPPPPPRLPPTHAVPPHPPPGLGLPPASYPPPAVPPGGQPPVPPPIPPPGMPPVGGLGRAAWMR
Method: as §1, §2, §3, §4, §5, §6, §7, §8, §9, §10, §11

CDK7/CycH/MAT1 = CDK7/CycH/MAT1 (Homo sapiens (Human), UniProt P50613); settings: thiol containing (1.2 mM DTT), ATP 3.0 μM
Sequence of CDK7/CycH/MAT1 (P50613 whole entry): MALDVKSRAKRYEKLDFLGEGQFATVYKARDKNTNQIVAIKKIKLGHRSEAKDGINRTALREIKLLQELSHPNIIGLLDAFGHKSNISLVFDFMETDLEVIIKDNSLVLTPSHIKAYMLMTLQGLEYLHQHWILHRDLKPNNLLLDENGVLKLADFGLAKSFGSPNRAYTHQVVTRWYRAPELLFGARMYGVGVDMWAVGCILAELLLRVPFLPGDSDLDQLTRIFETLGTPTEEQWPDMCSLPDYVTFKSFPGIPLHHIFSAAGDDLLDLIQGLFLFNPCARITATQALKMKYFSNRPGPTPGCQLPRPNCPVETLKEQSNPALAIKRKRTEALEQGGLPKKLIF
Sequence of CDK7/CycH/MAT1 (P51946 whole entry partner): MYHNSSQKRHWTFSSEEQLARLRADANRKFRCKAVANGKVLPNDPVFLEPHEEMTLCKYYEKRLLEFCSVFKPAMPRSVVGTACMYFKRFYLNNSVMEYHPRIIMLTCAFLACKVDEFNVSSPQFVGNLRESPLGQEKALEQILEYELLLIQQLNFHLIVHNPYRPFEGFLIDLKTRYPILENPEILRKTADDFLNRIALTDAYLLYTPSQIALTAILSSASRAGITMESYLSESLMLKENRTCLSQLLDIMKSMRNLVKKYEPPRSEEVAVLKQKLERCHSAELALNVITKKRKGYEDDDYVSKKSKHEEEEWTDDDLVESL
Sequence of CDK7/CycH/MAT1 (P51948 whole entry partner): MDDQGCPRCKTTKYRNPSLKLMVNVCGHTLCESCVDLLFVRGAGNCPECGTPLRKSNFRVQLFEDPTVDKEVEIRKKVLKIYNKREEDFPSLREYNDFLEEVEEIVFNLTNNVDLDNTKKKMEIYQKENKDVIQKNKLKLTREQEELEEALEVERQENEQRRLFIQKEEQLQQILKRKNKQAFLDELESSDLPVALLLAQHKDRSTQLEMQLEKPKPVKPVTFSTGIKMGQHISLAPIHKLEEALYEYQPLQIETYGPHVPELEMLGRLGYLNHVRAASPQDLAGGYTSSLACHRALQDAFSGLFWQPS
Method: as §1, §2, §3, §4, §5, §6, §7, §8, §9, §10, §11

Row | Structure (SMILES) | IC50 (CDK2/CycA2) [µM] | IC50 (CDK12 wt/CycK) [µM] | IC50 (CDK7/CycH/MAT1) [µM]
1 | CCC(=O)Nc1ccc(C(=O)N2CCC[C@@H](Nc3ncc4ccc(OC)cc4n3)C2)cc1 [Example 20, (R)-N-(4-(3-((7-methoxyquinazolin-2-yl)amino)piperidine-1-carbonyl)phenyl)propionamide] | 30 to 100 | 30 to 100 | 30 to 100
2 | CCC(=O)Nc1ccc(C(=O)N2CCC[C@@H](Nc3ncc4ccc(Cl)cc4n3)C2)cc1 [Example 22, (R)-N-(4-(3-((7-chloroquinazolin-2-yl)amino)piperidine-1-carbonyl)phenyl)propionamide] | 30 to 100 | 30 to 100 | 30 to 100
3 | C=CC(=O)Nc1ccc(C(=O)N2CC[C@@H](Nc3ncc4cc(C)ccc4n3)C2)cc1 [Example 30, (R)-N-(4-(3-((6-methylquinazolin-2-yl)amino)pyrrolidine-1-carbonyl)phenyl)acrylamide] | 1 to 10 | 0.1 to 1 | 1 to 10
4 | C=CC(=O)Nc1ccc(C(=O)N2CC[C@@H](Nc3ncc4ccncc4n3)C2)cc1 [Example 31, (R)-N-(4-(3-(pyrido[3,4-d]pyrimidin-2-ylamino)pyrrolidine-1-carbonyl)phenyl)acrylamide] | 0.1 to 1 | ≤ 0.1 | 1 to 10
5 | C=CC(=O)Nc1ccc(C(=O)N2CC[C@@H](Nc3ncc4ccc(C)cc4n3)C2)cc1 [Example 32, (R)-N-(4-(3-((7-methylquinazolin-2-yl)amino)pyrrolidine-1-carbonyl)phenyl)acrylamide] | 0.1 to 1 | ≤ 0.1 | 1 to 10
6 | C=CC(=O)Nc1ccc(C(=O)N2CC[C@@H](Nc3ncc4ccc(F)cc4n3)C2)cc1 [Example 35, (R)—N-(4-(3-((7-fluoroquinazolin-2-yl)amino)pyrrolidine-1-carbonyl)phenyl)acrylamide] | 1 to 10 | ≤ 0.1 | 1 to 10
7 | C=CC(=O)Nc1ccc(C(=O)N2CC[C@@H](Nc3ncc4ccc(Cl)cc4n3)C2)cc1 [Example 36, (R)—N-(4-(3-((7-chloroquinazolin-2-yl)amino)pyrrolidine-1-carbonyl)phenyl)acrylamide] | 0.1 to 1 | 0.1 to 1 | 1 to 10

More lines, now with the values ahead:

Row | IC50 (CDK2/CycA2) [µM] | IC50 (CDK12 wt/CycK) [µM] | IC50 (CDK7/CycH/MAT1) [µM] | Structure (SMILES)
8 | 10 to 30 | 10 to 30 | 30 to 100 | CCC(=O)Nc1ccc(C(=O)N2CCC[C@@H](Nc3ncc4ccc(S(C)(=O)=O)cc4n3)C2)cc1 [Example 21, (R)-N-(4-(3-((7-(methylsulfonyl)quinazolin-2-yl)amino)piperidine-1-carbonyl)phenyl)propionamide]
9 | 30 to 100 | 30 to 100 | 30 to 100 | CCC(=O)Nc1ccc(C(=O)N2CCC[C@@H](Nc3ncc4ccc(F)cc4n3)C2)cc1 [Example 23, (R)-N-(4-(3-((7-fluoroquinazolin-2-yl)amino)piperidine-1-carbonyl)phenyl)propionamide]
10 | 10 to 30 | 10 to 30 | 30 to 100 | CCC(=O)Nc1ccc(C(=O)N2CCC[C@@H](Nc3ncc4ccc(=O)n(C(C)C)c4n3)C2)cc1 [Example 24, (R)-N-(4-(3-((8-isopropyl-7-oxo-7,8-dihydropyrido[2,3-d]pyrimidin-2-yl)amino)piperidine-1-carbonyl)phenyl)propionamide]
11 | 0.1 to 1 | ≤ 0.1 | 1 to 10 | C=CC(=O)Nc1ccc(C(=O)N2CC[C@@H](Nc3ncc4cc(Cl)ccc4n3)C2)cc1 [Example 25, (R)-N-(4-(3-((6-chloroquinazolin-2-yl)amino)pyrrolidine-1-carbonyl)phenyl)acrylamide]
12 | 10 to 30 | 0.1 to 1 | 30 to 100 | C=CC(=O)Nc1ccc(C(=O)N2CC[C@@H](Nc3ncc4cc(OC)ccc4n3)C2)cc1 [Example 29, (R)-N-(4-(3-((6-methoxyquinazolin-2-yl)amino)pyrrolidine-1-carbonyl)phenyl)acrylamide]
13 | ≤ 0.1 | ≤ 0.1 | 0.1 to 1 | C=CC(=O)Nc1ccc(C(=O)N2CC[C@@H](Nc3ncc4ccc(C(=O)O)cc4n3)C2)cc1 [Example 38, (R)-2-((1-(4-acrylamidobenzoyl)pyrrolidin-3-yl)amino)quinazoline-7-carboxylic Acid]

— patent US11447493B2 (Kinnate Biopharma Inc., priority 2018, dated 2022)
